# In patent US10091997B2, “Composition for inhibition of insect host sensing” (Vanderbilt University, priority 2010, dated 2018):
# Tests used:
# An. gambiae larvae = experiment: larval behavioral (movement) bioassay, Ethovision; type: in vivo, Anopheles gambiae
# Description: FIG. 9. VUAA1's larval activity threshold relative to DEET is 5 orders of magnitude lower and AgORco dependent. Larval activity in An. gambiae over 5 minutes monitored in 6-well culture plates using Ethovision (Noldus) software.
# In order to address whether VUAA1 as a non-volatile could also evoke behavioral responses from An. gambiae, the inventors tested behavioral responses to VUAA1 on individual larval stage mosquitoes by adaptation of an olfactory based bioassay recently developed at Vanderbilt (described in Liu et al., 2010). These methods are non-invasive, and easily executed using a fully automated setup with an Ethovision® camera/software system (Noldus Information Technology to quantify the overall movement of mosquito larvae in response to uniform concentrations of chemicals. In these assays, increased overall movement can be interpreted as an aversive response (akin to agitation) that are consistent with those evoked by commercially available insect repellents such as DEET.
# [1] = test system: CpA neuron (CO2 sensitive, does not express AgORco); experiment: single sensillum recordings, capitate peg sensilla, CpA neuron; type: in vivo, Anopheles gambiae; details: CO2 pulse at completion of assay, adult females
# Description: Single sensillum recordings were performed on 4-7 day old, non-bloodfed Anopheles gambiae females maintained on 10% sucrose and a 12/12 light dark cycle. Legs, wings and antennae were removed from cold-anesthetized females that were then restrained on double-stick tape with thread. A glass reference electrode filled with Sensillar lymph ringers (SLR)(Xu, 2005) was placed in the eye and the recording electrode filled with DMSO or VUAA1 diluted in SLR was used to puncture sensilla at their base. Responses were recorded and digitized using a Syntech IDAC-4 and analyzed with AutoSpike software (Syntech). New glass recording pipettes were used for every recording. Data was sampled at 12 kHz.
# The inventors next performed single unit, extracellular electrophysiological recordings on adult female An. gambiae to determine whether VUAA1 could activate AgORco-expressing odorant receptor neurons (ORNs) in vivo. ORNs, which express AgORco and a conventional OR are enclosed within the hair-like sensilla present on olfactory tissues. […] CpA is clearly distinguished from CpB/C by its large action potential amplitude. The action potential amplitudes of CpB and CpC are much smaller and in some preparations indistinguishable from each other; as a result, the spike activity of CpB and CpC neurons were binned for data analysis. […]
structure (smiles),measurement,setting,value
CCc1ccc(NC(=O)CSc2nnc(-c3cccnc3)n2CC)cc1 [VUAA1],larval behavioral responses (overall movement),"An. gambiae larvae; An. gambiae larvae, 5 minutes",robust responses
same,larval response after AgORco silencing,An. gambiae larvae; larvae treated with AgOrco siRNAs,no longer respond
same,larval response after mock or non-specific siRNA control injection,An. gambiae larvae; mock or non-specific siRNA control injection,retain their high sensitivity
same,threshold of larval responses lower than DEET,An. gambiae larvae; relative to DEET,5 orders of magnitude
same,CpA activity,[1],unchanged
